The values below come from the METLIN SMRT retention time set (Domingo-Almenara et al. 2019).

This series in a line: gradient 5% acetonitrile 3 min, to 50% in 2 min, to 85% in 15 min, held 3 min, 100 µL/min. To be noted: column: Zorbax Extend-C18 2.1 x 50 mm; eluents: water / acetonitrile, 0.1% formic acid. The procedure, abridged: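 Data were gathered over 3 months by HPLC coupled to a quadrupole time-of-flight mass spectrometer, operated in positive and negative ionization mode. Mixtures of ~100 pure standards ran on a Zorbax Extend-C18 column (2.1 × 50 mm, 1.8 μm) at 100 μL/min, with water and acetonitrile each containing 0.1% formic acid and dead and dwell volumes of 40 μL and 900 μL. Retention time was read from adduct peaks picked by computer and checked manually.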
Compound `O=C(Cn1c(=O)cc(-c2nc(C3CC3)no2)c2ccccc21)Nc1ccc2c(c1)OCCO2` had an RP-LC retention time of 906 s.
With `Cc1ccc(C)c(NS(=O)(=O)c2c(C)sc(C)c2-c2n[nH]c(C)c2C)c1`, the RP-LC retention time came out at 1140 s.
With `Cc1c(Cl)cccc1S(=O)(=O)N1CCc2c(c(-c3nnc(-c4ccc(F)cc4)o3)nn2C)C1` the figure was 1090 s; with `COc1ccc(C2OC(c3cc(OC)c(OC)c(OC)c3)=NN2C(C)=O)c(OC)c1` (centres undefined), 885 s.
As for `Cc1ccc(CNC(=O)C2(C)CCN(S(=O)(=O)c3cc(C)cc(C)c3)CC2)cc1`, the RP-LC retention time came out at 1030 s.
With `C[C@H](N)Cc1cccc(C(F)(F)F)c1` the figure was 655 s; with `Cc1ccc(Nc2c(-c3ccc(O)cc3)nc3cccc(C)n23)cc1`, 732 s.
`Cc1ccc(S(=O)(=O)NC(=O)NN2CCCCCC2)cc1` gave an RP-LC retention time of 914 s.
The result for `CC(CCc1ccccc1)NC(=O)Cn1nc2c(Oc3ccccc3)nccn2c1=O` (centres undefined) reads 880 s; that for `Cc1nc2cc(-c3noc(-c4ccc(Cl)cc4)n3)ccc2o1`, 1210 s.
The result for `Cc1ccc(S(=O)(=O)Nc2ccc3c(c2)CCC(=O)N3CC(C)C)c(C)c1` reads 945 s.
The result for `CCOC(=O)c1c(C)[nH]c(CCC(=O)NCCN2CCCCC2C)c1C` (centres undefined) reads 618 s.
The compound `O=C(CC1COc2ccccc2NC1=O)NCCc1ccc(Cl)cc1` (centres undefined) gave an RP-LC retention time of 910 s.
With `CCOCCCNC(=O)N1CCC2(CC1)Nc1cc(F)ccc1-n1cccc12` the figure was 858 s; with `CC(C)CCN(CC(=O)N1CCNCC1)C(=O)c1cccc(Br)c1`, 654 s.
The result for `CC(C)NC(=O)CCC1CCN(c2cc(NC3CC3)ncn2)CC1` reads 551 s; that for `CCOc1ccc(NC(=O)N2CCc3cn(CCOC)c4cccc(c34)C2)cc1`, 898 s; that for `O=C(NCc1ccccc1)c1c(O)c2cccnc2n(-c2ccccc2)c1=O`, 1160 s.
As for `CCn1c(=O)c2cc(C(=O)Nc3ccc(C(F)(F)F)cc3)nn2c2ccccc21`, the RP-LC retention time is 1090 s.
In turn, `COC(=O)c1c(N)n(C(C)c2ccccc2)c2nc3ccccc3nc12` (centres undefined) came in with an RP-LC retention time of 727 s.
The result for `Cc1cnn(CC(=O)N2CCCn3ccnc3C2C2CCCC2)c1` (centres undefined) reads 597 s; that for `Cc1nnc(-c2ccc3ccn(CC(=O)NC4CCCCCC4)c3c2)o1`, 813 s; that for `CCOC(=O)c1c(C)c(CCC(=O)N2CCN(c3ccccn3)CC2)c(C)n1C`, 646 s.
The result for `CCc1noc([C@@H]2CC(F)(F)CN2C(=O)c2cn(C)cn2)n1` reads 644 s.
With `Cn1ncc(Br)c1C(=O)N1CCCC1c1ccc(F)cc1` (centres undefined) the figure was 832 s; with `COc1ccc2[nH]cc(CCNC(=O)Cc3ccc(F)cc3)c2c1`, 790 s; with `Cc1nn(-c2nc(-c3ccc(F)cc3)cs2)c(C)c1CC(=O)Nc1ccccc1F`, 1140 s.
With `CCS(=O)(=O)N1CC(=O)N(c2cc(C)cc(C)c2)C(C)(C(=O)NC2CCCCCC2)C1` (centres undefined), the RP-LC retention time came to 935 s.
`Cc1nn(-c2ccc(F)cc2)c(-n2cccc2)c1C(=O)N1CCN(c2ccccn2)CC1` gave an RP-LC retention time of 650 s.
With `Cc1cc(C)cc(OCc2nc(CCN(C)C(=O)Nc3ccccc3)no2)c1` the figure was 970 s.
`O=C([C@@H]1C[C@H](F)CN1C(=O)c1ccco1)N1CCCCC1` displayed an RP-LC retention time of 626 s.
The result for `CC(C)c1nncn1C1CCN(S(=O)(=O)c2cccc(F)c2)CC1` reads 707 s; that for `CN(C)S(=O)(=O)c1ccc2nc(NC(=O)c3nc4ccccc4s3)sc2c1`, 948 s.
For `Cc1ccc(-c2cc3c(=O)n(Cc4noc(CN5CCOCC5)n4)ccn3n2)cc1`, the RP-LC retention time is 733 s.
The result for `COc1cccc(-c2noc(C3CCCN3C(=O)NCc3ccco3)n2)c1` (centres undefined) reads 615 s.
The result for `Cn1cc(CC(=O)NCc2ccc(F)cc2F)c2cccnc21` reads 688 s; that for `Cc1ccc(CCNC(=O)c2cc3n(n2)CC(C)(C(=O)NCc2ccc(F)cc2)N(C)C3=O)cc1` (centres undefined), 828 s.
The compound `Cc1ccc(NC(=O)Cn2ncc3c(c2=O)N(CC2CC2)C(=O)CS3)cc1F` gave an RP-LC retention time of 928 s.
With `Cc1ccc2c(c1)cc(S(=O)(=O)c1ccccc1)c(=O)n2CC(=O)N1CCCCC1` the figure was 919 s; with `COc1cccc2c1OC1(C)CC2C(S(=O)(=O)c2ccc(C)c(C)c2)C(=O)N1` (centres undefined), 888 s.
`CCOc1ccccc1NC(=O)Cn1ncc2c(c1=O)N(C1CC1)C(=O)CS2` displayed an RP-LC retention time of 775 s.
On to `CC1CCN(C(=O)CC2Sc3ncccc3N(C)C2=O)CC1` (centres undefined), for which the RP-LC retention time turned out to be 726 s.
The result for `COc1ccc(C(O)CN2CCN(c3ccccn3)CC2)cc1` (centres undefined) reads 540 s; that for `CCOC(=O)c1[nH]c(C)c(CCC(=O)N2CCC(C(=O)NCCCN3CCOCC3)CC2)c1C`, 580 s.
Consider `CSc1cccc(NC(=O)Cn2c(C)nc3c(c2=O)CN(Cc2ccccc2)CC3)c1`, for which the RP-LC retention time is 587 s.
The result for `COc1ccc(NC(=O)C2CCN(S(=O)(=O)c3cc(C(=O)N4CCOCC4)cs3)CC2)cc1` reads 721 s; that for `COc1ccc(N2CCN(C(=O)c3cn4ccccc4n3)CC2)cc1`, 603 s.
With `Cc1ccc2c(c1)N(S(C)(=O)=O)CCC(C(=O)Nc1ccccc1)O2` (centres undefined) the figure was 892 s; with `Cc1cc(NCc2ccccn2)n2ncc(-c3ccccc3)c2n1`, 706 s.
With `CCc1nnc(NC(=O)Cc2csc(-n3cccc3)n2)s1` the figure was 701 s.
In the case of `CSc1ccc(NC(=O)N2CCN(c3ccc(C(F)(F)F)cn3)CC2)cc1`, the RP-LC retention time was 1010 s.
The result for `COc1ccccc1C(=O)Nc1cnc(-c2ccc(Cl)cc2)nc1` reads 1170 s.
`O=C(Cc1cccs1)NC1CCCN(c2cc(-c3ccc(F)cc3)[nH]n2)C1` (centres undefined) had an RP-LC retention time of 784 s.
With `C[C@@H](O)[C@H]1C(=O)N2C(C(=O)OCOC(=O)C(C)(C)C)=C(SC3CN(C4=NCCS4)C3)[C@H](C)[C@H]12` the figure was 732 s; with `CN(CCNC(=O)C1CCCN(S(=O)(=O)c2ccc3c(ccn3C)c2)C1)Cc1ccccc1` (centres undefined), 704 s; with `CCCNC(=O)c1ccc(S(N)(=O)=O)cc1`, 653 s.
For `Cc1cccc(-c2nc3cnccn3c2NCCC(=O)NC2CCCC2)c1`, the RP-LC retention time was determined as 670 s.
The result for `Cc1cc(Cl)ccc1OCc1nc(-c2ccc3c(c2)nnn3CCC(=O)N2CCOCC2)no1` reads 974 s; that for `Cc1nn(-c2ccccc2)c(C)c1S(=O)(=O)N1CCC(C(=O)N2CCc3ccccc3C2)CC1`, 986 s.
Consider `Cc1ccc2oc(=O)n(Cc3noc(C(=O)NCCC4=CCCCC4)n3)c2c1`, for which the RP-LC retention time stood at 1090 s.
With `O=S(=O)(c1ccccc1Cl)N1CCN(c2ccc3nnc(-c4ccco4)n3n2)CC1` the figure was 726 s; with `Cc1nnc2ccc(N3CCC(C(=O)NCCCOC(C)C)CC3)nn12`, 643 s; with `Cc1nc(-c2ccc(N3CCN(S(=O)(=O)c4cccnc4)CC3)nc2)no1`, 680 s.
The result for `CC(=O)N1c2ccc(S(=O)(=O)N3CCCC3)cc2CC1C(=O)NCCCc1ccccc1` (centres undefined) reads 868 s.
With `COCC1(O)CCOC2(CCN(Cc3ccccc3F)CC2)C1` (centres undefined) the figure was 544 s.
On to `Cc1ccc(CNC(=O)C2(C)CCCN(C(=O)Nc3ccccc3Br)C2)cc1` (centres undefined), for which the RP-LC retention time turned out to be 1020 s.
On to `Cc1nc(N2CCCCC2)cc(N2CCN(C(=O)c3ccc(Br)o3)CC2)n1`, for which the RP-LC retention time is 689 s.
With `Cc1ccc(-n2nc3c(N4CCCC(C(=O)NCCN5CCOCC5)C4)nnc(C)c3c2C)cc1` (centres undefined) the figure was 589 s; with `COc1ccc(NC(=O)C2c3ccccc3C(=O)N3CCc4ccccc4C23)cc1OC` (centres undefined), 762 s.
`COc1ccc(-c2nc(-c3cccc(-c4ccnn4C)c3)no2)c(OC)c1` returned an RP-LC retention time of 1030 s.
Take `CCN1C(=O)c2cccnc2Sc2cc(NC(=O)c3ccoc3)ccc21`: the RP-LC retention time amounted to 745 s.
With `COc1ccc(NS(=O)(=O)c2c(C)nn(-c3ccc(-c4ccc(C)cc4)nn3)c2C)cc1` the figure was 1060 s; with `CCOC(=O)c1c(S(=O)(=O)N2CCC(C(=O)Nc3ccc(OC)cc3)CC2)c(C)n(CC)c1C`, 857 s.
For `c1ccc(N2CCN(Cc3nc(-c4ccc(N5CCSCC5)nc4)no3)CC2)nc1`, the RP-LC retention time was determined as 625 s.
With `CCc1nc(-c2csc(S(=O)(=O)N3CCC(C(=O)Nc4cccc(Cl)c4C)CC3)c2)no1`, the RP-LC retention time came out at 984 s.
The result for `COc1ccc(NC(=O)Cn2c(C)cc(-c3nnc(C4CCC4)o3)c2C)cc1OC` reads 796 s; that for `Cc1cnc(C2CN(C3CCCCCC3)C2)n1Cc1cccnc1`, 608 s.
Compound `COC(=O)c1cc2c(=O)n(-c3ccc(Cl)c(C(F)(F)F)c3)ccc2nc1C` displayed an RP-LC retention time of 992 s.
The compound `O=C([C@@H]1C[C@H](Oc2ccccc2)CN1C(=O)c1ccco1)N1CCCC1` had an RP-LC retention time of 603 s.
